In assay [1] the target is human GABAA α5β2γ1 receptor (Homo sapiens (Human), UniProt P31644+Q8N1C3). The assay is described as follows: Radioligand binding assay, competition for [3H]RO7239181, γ1-containing GABAA subtypes. As to the method:
The affinity of compounds at GABAA γ1 subunit-containing receptors was measured by competition for [^3H]RO7239181 (67.3 Ci/mmol; Roche) binding to membranes from HEK293F cells (ThermoFisher R79007) expressing human (transiently transfected) receptors of composition α5β2γ1, α2β2γ1, α1β2γ1. For better protein expression of the α2 subunit-containing receptors, the 28 amino acid long signal peptide (Met1 to Ala28) of the human GABAA α2 subunit was substituted by the 31 amino acid long signal peptide (Met1 to Ser31) of human GABAA α5 subunit.
(§1) Harvested pellets from HEK293F cells expressing the different GABAA receptor subtypes were resuspended in Mannitol Buffer pH 7.2-7.4 (Mannitol 0.29 M, Triethylamine 10 mM, Acetic acid 10 mM, EDTA 1 mM plus protease inhibitors (20 tablets Complete, Roche Diagnostics Cat. No. 05 056 489 001 per liter)), washed two times and then resuspended at 1:10 to 1:15 dilution in the same buffer. Cell disruption was performed by stirring the suspension in a Parr vessel #4637 at 435 psi for 15 minutes, and then the suspensions were centrifuged at 1000×g for 15 minutes at 4° C. (Beckman Avanti J-HC; rotor JS-4.2). The supernatant (S1) was transferred in a 21 Schott flask and the pellet (P1) was resuspended with Mannitol Buffer up to 175 ml. The resuspended pellet was transferred into a 250 ml Corning centrifugal beaker and centrifuged at 1500×g for 10 minutes at 4° C. (Beckman Avanti J-HC; rotor JS-4.2). The supernatant (S1) was then transferred in the 21 Schott flask and the pellet was discarded. The supernatants (S1) were centrifuged in 500 ml Beckman polypropylene centrifugal beaker at 15'000×g for 30 minutes at 4° C. (Beckman Avanti J-20 XP; rotor JLA-10.500). The pellet (P2) was resuspended with Mannitol Buffer 1:1 and frozen at −80° C. The supernatant (S2) was centrifuged in 100 ml Beckman polypropylene centrifugal tubes at 48000×g for 50 minutes at 4° C. (Beckman Avanti J-20 XP; rotor JA-18). The supernatant (S3) was discarded and the pellet (P3) was resuspended with 1:1 Mannitol Buffer. The P2 and P3 protein concentration was determined with the BIORAD Standard assay method with bovine serum albumin as standard and measured on the NANO-Drop 1000. The membrane suspension was aliquots (500 μl per tube) and stored at −80° C. until required.
(§2) Membrane homogenates were resuspended and polytronised (Polytron PT1200E Kinematica AG) in Potassium Phosphate 10 mM, KCl 100 mM binding buffer at pH 7.4 to a final assay concentration determined with a previous experiment.
Radioligand binding assays were carried out in a volume of 200 μL (96-well plates) which contained 100 μL of cell membranes, [^3H]RO7239181 at a concentration of 1.5 nM (α5β2γ1) or 20-30 nM (α1β2γ1, α2β2γ1) and the test compound in the range of [0.3-10000]×10^−9 M. Nonspecific binding was defined by 10×10^−6 (α5β2γ1) and 30×10^−6 M RO7239181 and typically represented less than 5% (α5β2γ1) and less than 20% (α1β2γ1, α2β2γ1) of the total binding. Assays were incubated to equilibrium for 1 hour at 4° C. and then, membranes were filtered onto unifilter (96-well white microplate with bonded GF/C filters preincubated 20-50 minutes in 0.3% Polyethylenimine) with a Filtermate 196 harvester (Packard BioScience) and washed 4 times with cold Potassium Phosphate 10 mM pH 7.4, KCl 100 mM binding buffer. After anhydrousing, filter-retained radioactivity was detected by liquid scintillation counting. Ki values were calculated using Excel-Fit (Microsoft) and are the means of two determinations.

The target of assay [2] is human GABAA α1β3γ2 receptor (Homo sapiens (Human), UniProt P14867+P18507). In words: Radioligand binding assay, competition for [3H]Flumazenil, γ2-containing GABAA subtypes. To be noted: for γ2/γ1 Selectivity Ratio: Ki α1β3γ2 (nM)/Ki α2β2γ1 (nM); for LogSel: Log[Ki α1β3γ2 (nM)/Ki α2β2γ1 (nM)]. As to the method: The affinity of compounds at GABAA γ2 subunit-containing receptors was measured by competition for [^3H]Flumazenil (81.1 Ci/mmol; Roche) binding to HEK293F cells expressing human (transiently transfected) receptors of composition α1β3γ2.
Harvested pellets from HEK293F cells expressing the different GABAA γ2 receptor subtypes were resuspended in Mannitol Buffer pH 7,2-7,4 and processed as described above for the cells expressing the GABAA γ1 subunit-containing receptors.
Assays were incubated to equilibrium for 1 hour at 4° C. and harvested onto GF/C uni-filters (Packard) by filtration using a Packard harvester and washing with ice-cold wash buffer (50 mM Tris; pH 7.5). After anhydrousing, filter-retained radioactivity was detected by liquid scintillation counting. Ki values were calculated using Excel-Fit (Microsoft) and are the means of two determinations.

The target of assay [3] is human GABAA α2β2γ1 receptor (Homo sapiens (Human), UniProt P47869+Q8N1C3). In words: Radioligand binding assay, competition for [3H]RO7239181, γ1-containing GABAA subtypes. As to conditions: Ki h-GABAA α2β2γ1, membranes of HEK293F cells, [3H]RO7239181 20-30 nM. How it is done:
(§3) The affinity of compounds at GABAA γ1 subunit-containing receptors was measured by competition for [^3H]RO7239181 (67.3 Ci/mmol; Roche) binding to membranes from HEK293F cells (ThermoFisher R79007) expressing human (transiently transfected) receptors of composition α5β2γ1, α2β2γ1, α1β2γ1.
as §1, §2
(§4) Assays were incubated to equilibrium for 1 hour at 4° C. and then, membranes were filtered onto unifilter (96-well white microplate with bonded GF/C filters preincubated 20-50 minutes in 0.3% Polyethylenimine) with a Filtermate 196 harvester (Packard BioScience) and washed 4 times with cold Potassium Phosphate 10 mM pH 7.4, KCl 100 mM binding buffer. After anhydrousing, filter-retained radioactivity was detected by liquid scintillation counting. Ki values were calculated using Excel-Fit (Microsoft) and are the means of two determinations.

Assay [4] concerns the target human GABAA α1β2γ1 receptor (Homo sapiens (Human), UniProt P14867+Q8N1C3). The description is as above. As to conditions: [3H]RO7239181 20-30 nM, Table 1. As to the method: as §3, §1, §2, §4
Where [5] appears, read: Ki h-GABAA α1β2γ1, membranes of HEK293F cells.
[6] abbreviates: HEK293F cells, [3H]Flumazenil 1 nM, Table 1, read-out: Ki h-GABAA α1β3γ2.

Where two headings read alike, the source gives them in different places.

A word on the Ki: it is a measure of affinity in units of concentration, obtained from inhibition or displacement.

As to `Cc1nnc2n1-c1sc3c(c1C(c1c(F)cccc1F)=N[C@H]2C)CCC[C@@H](F)C3` (single isomer, unassigned) [Example 16], the Ki is 13.6 nM in assay [1]; 1420 nM in assay [2]; 89.8 nM in assay [3] (Table 1); 89.8 nM in assay [3] (Table 2); 421 nM in assay [4] (setting [5]). The “γ2/γ1 Selectivity Ratio” value in assay [2] (Table 1) was 15.8. Further, the LogSel in assay [2] (Table 1) worked out at 1.20.

In the case of `Cc1nnc2n1-c1sc3c(c1C(c1c(F)cccc1F)=NC2)CCOCC3` [Example 5, 9-(2,6-difluorophenyl)-3-methyl-14-oxa-18-thia-2,4,5,8-tetrazatetracyclo[8.8.0.02,6.011,17]octadeca-1(10),3,5,8,11(17)-pentaene], the Ki in assay [1] turned out to be 10.5 nM; in assay [2], 1260 nM; in assay [3] (Table 1), 63.5 nM; in assay [3] (Table 2), 63.5 nM; in assay [4] (setting [5]), 246 nM. The “γ2/γ1 Selectivity Ratio” value in assay [2] (Table 1) is on record as 19.8. The LogSel in assay [2] (Table 1) is listed as 1.30.

As to `[2H]C1([2H])OCc2c(sc3c2C(c2c(F)cccc2F)=N[C@@H](C)c2nc(C(=O)NCC)nn2-3)OC1([2H])[2H]` [Example 38, (7S)-14,14,15,15-tetradeuterio-9-(2,6-difluorophenyl)-N-ethyl-7-methyl-13,16-dioxa-18-thia-2,3,5,8-tetrazatetracyclo[8.8.0.02,6.011,17]octadeca-1(10),3,5,8,11(17)-pentaene-4-carboxamide], the Ki in assay [1] was determined as 3.59 nM; in assay [2] (setting [6]) it was 4030 nM; in assay [3] (Table 1), 17.9 nM; in assay [3] (Table 2), 17.9 nM; in assay [4] (membranes of HEK293F cells, read-out: Ki h-GABAA α1β2γ1) it was 122 nM. Moreover, the “γ2/γ1 Selectivity Ratio” value in assay [2] (Table 1) is on record as 224.3. In addition, the LogSel in assay [2] (Table 1) is given as 2.35.

As to `Cc1cn2c(n1)[C@H](C)N=C(c1c(F)cccc1F)c1c-2sc2c1COCCC2` [Example 58, (7S)-9-(2,6-difluorophenyl)-4,7-dimethyl-13-oxa-18-thia-2,5,8-triazatetracyclo[8.8.0.02,6.011,17]octadeca-1(10),3,5,8,11(17)-pentaene], the Ki in assay [1] came out at 2.59 nM; in assay [2], 1400 nM; in assay [3] (Table 1), 25 nM; in assay [3] (Table 2), 25 nM. The “γ2/γ1 Selectivity Ratio” value in assay [2] (Table 1) amounted to 56.0. This compound registered a LogSel in assay [2] (Table 1) of 1.75.

For the compound `C[C@@H]1N=C(c2c(F)cccc2F)c2c(sc3c2COCCO3)-n2cc(C(=O)NCC(C)(C)O)nc21` [Example 59, (7S)-9-(2,6-difluorophenyl)-N-(2-hydroxy-2-methyl-propyl)-7-methyl-13,16-dioxa-18-thia-2,5,8-triazatetracyclo[8.8.0.02,6.011,17]octadeca-1(10),3,5,8,11(17)-pentaene-4-carboxamide], the Ki in assay [1] was 2.27 nM; in assay [2] (setting [6]), 1270 nM; in assay [3] (Table 1), 8.9 nM; in assay [3] (Table 2), 8.9 nM; in assay [4] (setting [5]), 21.7 nM. The “γ2/γ1 Selectivity Ratio” value in assay [2] (Table 1) was found to be 142.9. Further, the LogSel in assay [2] (Table 1) came out at 2.16.

Take `C[C@@H]1N=C(c2c(F)cccc2F)c2c(sc3c2COCCO3)-n2nc(C(=O)NCC3(O)CC3)nc21` [Example 60, (7S)-9-(2,6-difluorophenyl)-N-[(1-hydroxycyclopropyl)methyl]-7-methyl-13,16-dioxa-18-thia-2,3,5,8-tetrazatetracyclo[8.8.0.02,6.011,17]octadeca-1(10),3,5,8,11(17)-pentaene-4-carboxamide]: the Ki in assay [1] stood at 2.86 nM; in assay [2] (setting [6]), 3690 nM; in assay [3] (Table 1) it was 23.4 nM; in assay [3] (Table 2), 23.4 nM. In assay [2] (Table 1), the “γ2/γ1 Selectivity Ratio” value is 157.4. The LogSel in assay [2] (Table 1) is on record as 2.20.

In the case of `C[C@@H]1N=C(c2c(F)cccc2F)c2c(sc3c2COCCC3)-n2nc(C(=O)NC[C@](C)(O)C(F)(F)F)nc21` [Example 69, (7S)-9-(2,6-difluorophenyl)-7-methyl-N-[(2S)-3,3,3-trifluoro-2-hydroxy-2-methyl-propyl]-13-oxa-18-thia-2,3,5,8-tetrazatetracyclo[8.8.0.02,6.011,17]octadeca-1(10),3,5,8,11(17)-pentaene-4-carboxamide], the inhibition constant (Ki) in assay [1] came out at 7.8 nM; in assay [2] (setting [6]), 3700 nM; in assay [3] (Table 1), 62 nM; in assay [3] (Table 2), 62 nM. The “γ2/γ1 Selectivity Ratio” value in assay [2] (Table 1) amounted to 59.7. The same compound returned a LogSel in assay [2] (Table 1) of 1.78.

`C[C@@H]1N=C(c2c(F)cccc2F)c2c(sc3c2COCCC3)-n2nc(C(=O)NCC(C)(C)O)nc21` [Example 71, (7S)-9-(2,6-difluorophenyl)-N-(2-hydroxy-2-methyl-propyl)-7-methyl-13-oxa-18-thia-2,3,5,8-tetrazatetracyclo[8.8.0.02,6.011,17]octadeca-1(10),3,5,8,11(17)-pentaene-4-carboxamide]: the Ki in assay [1] amounted to 7.3 nM; in assay [2] (setting [6]), 3920 nM; in assay [3] (Table 1), 80 nM; in assay [3] (Table 2), 80 nM. For the same compound, the “γ2/γ1 Selectivity Ratio” value in assay [2] (Table 1) was determined as 49.0. In assay [2] (Table 1), this compound showed a LogSel of 1.69.

The record behind these values is patent publication US20240294543A1, “CYCLOHEPTA-THIENO-DIAZEPINE DERIVATIVES AS GABA A GAMMA1 PAM” (Hoffmann-La Roche Inc., priority 2021, published 2024).
